Assay results reported in patent US20220331353A1, “SYNERGISTIC COMPOSITIONS AND METHODS TO INCREASE VASCULAR NITRIC OXIDE TO TREAT ENDOTHELIAL DYSFUNCTION AND RELATED CONDITIONS” (Calroy Health Sciences, LLC, priority 2021, published 2022).

Assay: Transdermal hydrogen sulfide on forearm after N-acetyl cysteine, Interscan Halimeter PLUS
Format: in vivo, human
Settings: 600 mg oral; for Transdermal Hydrogen Sulfide H2S: adult male, forearm
Protocol: We hypothesized that formula 2 sustained a higher level of bioavailable NO than formula 1 because N-acetyl cysteine generates hydrogen sulfide in the body. To test this hypothesis, we measured transdermal hydrogen sulfide on the surface of the forearm after an adult subject ingested 600 mg of N-acetyl cysteine. The test was performed using Interscan Halimeter® PLUS with a simple modification of sample collection method. Hydrogen sulfide, the primary volatile sulfur compounds detectable by the device, was measured in triplicate for 6 hours after dosing with N-acetyl cysteine (Table IV). […] The data support a mechanism wherein N-acetyl cysteine increases hydrogen sulfide production that boosts NO availability and activity in the body.

CC(=O)N[C@@H](CS)C(=O)O [N-acetyl cysteine]
Transdermal Hydrogen Sulfide H2S (0 h): 16 ppb
Transdermal Hydrogen Sulfide H2S (2 h): 27 ppb
Transdermal Hydrogen Sulfide H2S (3 h): 46 ppb
Transdermal Hydrogen Sulfide H2S (4 h): 51 ppb
Transdermal Hydrogen Sulfide H2S (5 h): 40 ppb
Transdermal Hydrogen Sulfide H2S (6 h): 16 ppb
transdermal hydrogen sulfide (peak at 4 hours): 51 ppb
transdermal hydrogen sulfide (starting value): 16 ppb
transdermal hydrogen sulfide (within 2 hours): 27 ppb
